According to patent US12006289B2, “Potassium channel inhibitors” (Saniona A/S, priority 2019, dated 2024):

Molecular target: erythrocyte KCa3.1 channels (Homo sapiens (Human), UniProt O15554)
Assay: Erythrocyte KCa3.1 assay
Type: cell-based
Details: human erythrocytes, A23187-activated, 37° C.; read-out: RBC K (in vitro) Human IC50
Experimental: Human blood was drawn from healthy human volunteers in a standard heparinized blood sampling vial (Vacutainer, Li/heparin, BD Bioscience, Plymouth, UK). The erythrocytes were packed by centrifugation, and the plasma and buffy coat were removed by aspiration. Erythrocytes were washed three times in the experimental salt solution and then stored at 0° C. until use. Blood samples from NMRI mice or from Wistar rats were treated similarly. The methodological principle is outlined in Macey et al. (1978) and further described in Strøbæk et al. (2013). Activation of the erythrocyte KCa3.1 channels were obtained by addition of the Ca^2+ ionophore A23187, which causes synchronized hyperpolarization, which is reported as a CCCP-mediated shift in the unbuffered extracellular pH of the erythrocyte suspension. Standard procedure: 3 mL unbuffered experimental salt solution (in mM: 2 KCl, 154 NaCl, 0.05 CaCl2) was heated to 37° C. with stirring. Packed erythrocytes were added (50 μL, final cytocrit 1.5%), and the extracellular pH (pHo) followed with a glass/calomel (pHG200-8/REF200, Radiometer, Denmark) electrode pair. CCCP (3 μL, final concentration 20 μM) was added followed by varying concentrations of test compounds (DMSO concentration constant). After pH stabilization at ˜7.2, A23187 (3 μL, final concentration 0.33 μM) was added to initiate the experiment. After the peak hyperpolarization was attained, the intracellular pH (pHi constant during the experiment) was found by haemolysing the erythrocytes via addition of 100 μL of Triton-X100.
The erythrocyte membrane potential, Vm, was calculated according to: Vm=−61.5 mV×(pHo−pHi) and the fractional remaining Ca^2+-activated K^+-conductance at the concentration C of blocker, fGK(C), was calculated from
[formula] where the K^+ equilibrium potential EK=−107 mV, the Cl^− equilibrium potential ECl=−12 mV and the Vm(0) and Vm(C) are the peak hyperpolarizations in the control and in the presence of a concentration of C of blocker respectively.
IC50 values for compounds were calculated from a plot of fGK(C) versus C by a fit to the Hill equation, using a custom program written in the IGOR-Pro software (WaveMetrics, Lake Oswego, OR, USA). All IC50-values are reported in μM.

| IC50 [nM] | Structure (SMILES) |
| --- | --- |
| 120 | COC(=O)N(CC(C)(C)NO)C1(c2ccc(F)c(C(F)(F)F)c2)CC1 [[33], Methyl (1-(4-fluoro-3-(trifluoromethyl)phenyl)cyclopropyl)(2-(hydroxyamino)-2-methylpropyl)carbamate] |
| 190 | Fc1ccc(C2(N(CC3CC3)C3CNC3)CC2)cc1C(F)(F)F [[6], N-(cyclopropylmethyl)-N-(1-(4-fluoro-3-(trifluoromethyl)phenyl)cyclopropyl)azetidin-3-amine] |
| 100 | COC(=O)N(C[C@@]1(C)CCCN1)C1(c2ccc(F)c(C(F)(F)F)c2)CC1 [[46], Methyl (R)-(1-(4-fluoro-3-(trifluoromethyl)phenyl)cyclopropyl)((2-methylpyrrolidin-2-yl)methyl)carbamate] |
| 440 | COC(=O)N(CC(C)(C)N)C1(c2cccc(Cl)c2)CC1 [[13], Methyl (2-amino-2-methylpropyl)(1-(3-chlorophenyl)cyclopropyl)carbamate] |
| 210 | COC(=O)N(CC1CCN1)C1(c2ccc(F)c(C(F)(F)F)c2)CC1 (stereo not shown) [[26], Methyl (azetidin-2-ylmethyl)(1-(4-fluoro-3-(trifluoromethyl)phenyl)cyclopropyl)carbamate] |
| 47 | CCOC(=O)N(CC(C)(C)N)C1(c2ccc(F)c(C(F)(F)F)c2)CC1 [[19], Ethyl (2-amino-2-methylpropyl)(1-(4-fluoro-3-(trifluoromethyl)phenyl)cyclopropyl)carbamate] |
| 150 | COC(=O)N(C[C@]1(C)CCCN1)C1(c2ccc(F)c(C(F)(F)F)c2)CC1 [[50], Methyl (S)-(1-(4-fluoro-3-(trifluoromethyl)phenyl)cyclopropyl)((2-methylpyrrolidin-2-yl)methyl)carbamate] |
| 400 | COC(=O)N(CC(C)(C)N)C1(c2cccc(Br)c2)CC1 [[12], Methyl (2-amino-2-methylpropyl)(1-(3-bromophenyl)cyclopropyl)carbamate] |
| 52 | CCOC(=O)N(C[C@@H]1CCCN1)C1(c2ccc(F)c(C(F)(F)F)c2)CC1 [[34], Ethyl (S)-(1-(4-fluoro-3-(trifluoromethyl)phenyl)cyclopropyl)(pyrrolidin-2-ylmethyl)carbamate] |
| 120 | COC(=O)N(C[C@@H]1CCCN1)C1(c2ccc(F)c(C(F)(F)F)c2)CC1 [[23], Methyl (S)-(1-(4-fluoro-3-(trifluoromethyl)phenyl)cyclopropyl)(pyrrolidin-2-ylmethyl)carbamate] |
| 180 | CC(C)(N)CNC1(c2ccc(F)c(C(F)(F)F)c2)CC1 [[25], N1-(1-(4-fluoro-3-(trifluoromethyl)phenyl)cyclopropyl)-2-methylpropane-1,2-diamine] |
| 310 | COC(=O)N(CC(C)(C)NC(C)=O)C1(c2ccc(F)c(C(F)(F)F)c2)CC1 [[24], Methyl (2-acetamido-2-methylpropyl)(1-(4-fluoro-3-(trifluoromethyl)phenyl)cyclopropyl)carbamate] |
| 270 | COC(=O)N(C[C@@H]1COCCN1C)C1(c2ccc(F)c(C(F)(F)F)c2)CC1 [[40], Methyl (R)-(1-(4-fluoro-3-(trifluoromethyl)phenyl)cyclopropyl)((4-methylmorpholin-3-yl)methyl)carbamate] |
| 410 | N[C@H]1CCC[C@@H]1NC1(c2ccc(F)c(C(F)(F)F)c2)CC1 [[51], (1S, 2S)—N1-(1-(4-fluoro-3-(trifluoromethyl)phenyl)cyclopropyl)-cyclopentane-1,2-diamine] |
| 92 | COC(=O)N(CC(C)(C)N)C1(c2ccc(F)c(OC(F)(F)F)c2)CC1 [[20], Methyl (2-amino-2-methylpropyl)(1-(4-fluoro-3-(trifluoromethoxy)phenyl)cyclopropyl)carbamate] |
| 18 | CC(C)(N)CN(C1CCC1)C1(c2cccc(C(F)(F)F)c2)CC1 [[18], N1-cyclobutyl-2-methyl-N1-(1-(3-(trifluoromethyl)phenyl)cyclopropyl)propane-1,2-diamine] |
| 87 | COC(=O)N(C[C@@H]1CCCN1)C1(c2ccc(F)c(OC(F)(F)F)c2)CC1 [[28], Methyl (S)-(1-(4-fluoro-3-(trifluoromethoxy)phenyl)cyclopropyl)(pyrrolidin-2-ylmethyl)carbamate] |

| IC50 [nM] | Structure (SMILES) |
| --- | --- |
| 390 | CS(=O)(=O)N(CC1(N)CC1)C1(c2ccc(F)c(C(F)(F)F)c2)CC1 [[49], N-((1-aminocyclopropyl)methyl)-N-(1-(4-fluoro-3-(trifluoromethyl)-phenyl)cyclopropyl)methanesulfonamide] |
| 75 | CC(C)(N)CN(C1(c2ccc(F)c(C(F)(F)F)c2)CC1)S(C)(=O)=O [[21], N-(2-amino-2-methylpropyl)-N-(1-(4-fluoro-3-(trifluoromethyl)phenyl)cyclopropyl)methanesulfonamide] |
| 230 | O=C(OCC1CC1)N(C[C@@H]1CCCN1)C1(c2ccc(F)c(C(F)(F)F)c2)CC1 [[48], Cyclopropylmethyl (S)-(1-(4-fluoro-3-(trifluoromethyl)phenyl)cyclopropyl)(pyrrolidin-2-ylmethyl)carbamate] |
| 93 | N[C@H]1CCC[C@H]1NC1(c2ccc(F)c(C(F)(F)F)c2)CC1 [[52], (1R,2S)—N1-(1-(4-fluoro-3-(trifluoromethyl)phenyl)cyclopropyl)-cyclopentane-1,2-diamine] |
| 350 | CC(C)(N)CN(C(=O)C1CC1)C1(c2ccc(F)c(C(F)(F)F)c2)CC1 [[9], N-(2-amino-2-methylpropyl)-N-(1-(4-fluoro-3-(trifluoromethyl)phenyl)cyclopropyl)cyclopropanecarboxamide] |
| 170 | COC(=O)N(CC1CCN1C)C1(c2ccc(F)c(C(F)(F)F)c2)CC1 (stereo not shown) [[30], Methyl (1-(4-fluoro-3-(trifluoromethyl)phenyl)cyclopropyl)((1-methylazetidin-2-yl)methyl)carbamate] |
| 250 | CC(C)(O)CN(CC1CCN1)C1(c2ccc(F)c(C(F)(F)F)c2)CC1 (stereo not shown) [[14], 1-((azetidin-2-ylmethyl)(1-(4-fluoro-3-(trifluoromethyl)phenyl)cyclopropyl)amino)-2-methyl propan-2-ol] |
| 330 | COC(=O)N(C[C@H]1CCCN1)C1(c2ccc(F)c(OC(F)(F)F)c2)CC1 [[29], Methyl (R)-(1-(4-fluoro-3-(trifluoromethoxy)phenyl)cyclopropyl)(pyrrolidin-2-ylmethyl)carbamate] |
| 210 | COC(=O)N(C[C@H]1CCCN1)C1(c2ccc(F)c(C(F)(F)F)c2)CC1 [[22], Methyl (R)-(1-(4-fluoro-3-(trifluoromethyl)phenyl)cyclopropyl)(pyrrolidin-2-ylmethyl)carbamate] |
| 220 | NC1(CNC2(c3ccc(F)c(C(F)(F)F)c3)CC2)CC1 [[47], N-((1-aminocyclopropyl)methyl)-1-(4-fluoro-3-(trifluoromethyl)phenyl)cyclopropan-1-amine] |
| 310 | COC(=O)N(C1CNC1)C1(c2ccc(F)c(C(F)(F)F)c2)CC1 [[5], Methyl azetidin-3-yl(1-(4-fluoro-3-(trifluoromethyl)phenyl)cyclopropyl)carbamate] |
| 140 | CN1CCC[C@H]1CN(C1(c2ccc(F)c(C(F)(F)F)c2)CC1)S(C)(=O)=O [[37], (S)—N-(1-(4-fluoro-3-(trifluoromethyl)phenyl)cyclopropyl)-N-((1-methylpyrrolidin-2-yl)methyl)methanesulfonamide] |
| 420 | COC(=O)N(C[C@@H]1COCCN1)C1(c2ccc(F)c(C(F)(F)F)c2)CC1 [[39], Methyl (R)-(1-(4-fluoro-3-(trifluoromethyl)phenyl)cyclopropyl)(morpholin-3-ylmethyl) carbamate] |
| 180 | O=C(OC1CC1)N(C[C@@H]1CCCN1)C1(c2ccc(F)c(C(F)(F)F)c2)CC1 [[45], Cyclopropyl (S)-(1-(4-fluoro-3-(trifluoromethyl)phenyl)cyclopropyl)(pyrrolidin-2-ylmethyl)carbamate] |
| 71 | COC(=O)N1CC(N(C(=O)OC)C2(c3ccc(F)c(C(F)(F)F)c3)CC2)C1 [[4], Methyl 3-((1-(4-fluoro-3-(trifluoromethyl)phenyl)cyclopropyl) (methoxycarbonyl)amino)azetidine-1-carboxylate] |
| 120 | CCOC(=O)N(C[C@H]1CCCN1)C1(c2ccc(F)c(C(F)(F)F)c2)CC1 [[38], Ethyl (R)-(1-(4-fluoro-3-(trifluoromethyl)phenyl)cyclopropyl)(pyrrolidin-2-ylmethyl)carbamate] |

| Structure (SMILES) | IC50 [nM] |
| --- | --- |
| CS(=O)(=O)N(C[C@H]1CCCN1)C1(c2ccc(F)c(C(F)(F)F)c2)CC1 [[41], (R)—N-(1-(4-fluoro-3-(trifluoromethyl)phenyl)cyclopropyl)-N-(pyrrolidin-2-ylmethyl) methane sulfonamide] | 380 |
